Values quoted from earlier work as cited in patent publication US20240398765A1, “TRANSDERMAL THERAPEUTIC SYSTEM FOR THE TRANSDERMAL ADMINISTRATION OF TIZANIDINE” (LTS LOHMANN THERAPIE-SYSTEME AG, priority 2021, published 2024).
Where a name gives a salt, the structure may show the parent alone.

Settings: background statement, no test described

Clc1ccc2nsnc2c1NC1=NCCN1 [tizanidine in the form of its hydrochloride]
permeation through the skin: does not permeate through the skin

Clc1ccc2nsnc2c1NC1=NCCN1 [tizanidine in the form of its free base, 5-chloro-4-(2-imidazolin-2-ylamino)-2,1,3-benzothiadiazole]
permeation through the skin: slightly permeates through the skin
